In ChEMBL document CHEMBL1641420, “Discovery of pyrazolo[1,5-a]pyrimidine-based CHK1 inhibitors: a template-based approach--part 1” (Bioorg Med Chem Lett, 2011):

Columns and labels:
[1] = target: T1, Serine/threonine-protein kinase Chk1 (Homo sapiens, UniProt O14757); experiment: Inhibition of recombinant His-CHK1 expressed in baculovirus after 2 hrs by scintillation proximity assay
T1 sequence (O14757 whole entry): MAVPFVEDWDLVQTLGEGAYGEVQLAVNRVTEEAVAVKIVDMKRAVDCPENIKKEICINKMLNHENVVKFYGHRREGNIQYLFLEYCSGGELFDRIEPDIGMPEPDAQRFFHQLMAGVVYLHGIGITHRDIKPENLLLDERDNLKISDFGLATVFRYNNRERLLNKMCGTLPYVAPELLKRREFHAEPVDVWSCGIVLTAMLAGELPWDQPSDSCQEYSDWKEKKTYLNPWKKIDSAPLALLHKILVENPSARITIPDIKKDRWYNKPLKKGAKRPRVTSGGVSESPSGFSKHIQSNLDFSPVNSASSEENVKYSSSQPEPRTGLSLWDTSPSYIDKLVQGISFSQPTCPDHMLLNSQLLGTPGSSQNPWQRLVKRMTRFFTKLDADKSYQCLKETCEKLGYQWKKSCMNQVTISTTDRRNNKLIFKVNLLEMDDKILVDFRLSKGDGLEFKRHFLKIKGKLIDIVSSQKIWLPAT

[2] = target: Cyclin-dependent kinase 2/cyclin A (Homo sapiens, UniProt P24941); experiment: Inhibition of CDK2/cyclin A; format: protein-complex assay
[3] = Selectivity ratio, ratio of IC50 for CDK2/cyclin A to IC50 for recombinant His-CHK1

Compound	IC50 [1] [nM]	IC50 [2] [nM]	Ratio IC50 [3]
Nc1cc(C2CCCNC2)nc2c(Br)cnn12 (configuration not stated)	1080	86	
Nc1cc(C2CCCNC2)nc2c(-c3cccs3)cnn12 (configuration not stated)	1300	690	
Nc1cc(C2CCCNC2)nc2c(-c3cncnc3)cnn12 (configuration not stated)	280	5400	
Cn1cc(-c2cnn3c(N)cc(C4CCCNC4)nc23)cn1 (configuration not stated)	60	6100	100
CNc1cc(C2CCCNC2)nc2c(-c3cnn(C)c3)cnn12 (configuration not stated)	140	> 50000	
Nc1cc(C2CCCNC2)nc2c(-c3ccn[nH]3)cnn12 (configuration not stated)	2000	2200	
Nc1cc(C2CCCNC2)nc2c(-c3cscn3)cnn12 (configuration not stated)	> 50000		
Nc1cc(C2CCCNC2)nc2c(-c3ccoc3)cnn12 (configuration not stated)	820		
Cn1cc(-c2cnn3c(NC4CCNCC4)cc(C4CCCNC4)nc23)cn1 (configuration not stated)	6800	> 50000	
Nc1cc(C2CCCNC2)nc2c(-c3cccc(O)c3)cnn12 (configuration not stated)	1700	640	
Cn1cc(-c2cnn3c(Nc4ccccc4)cc(C4CCCNC4)nc23)cn1 (configuration not stated)	87	> 50000	
CCc1cnn2c(N)cc(C3CCCNC3)nc12 (configuration not stated)	9400	270	
C/C=C/c1cnn2c(N)cc(C3CCCNC3)nc12 (configuration not stated)	5100	710	
Cn1cc(-c2cnn3c(NC(C)(C)C)cc(C4CCCNC4)nc23)cn1 (configuration not stated)	5000	> 50000	
Cc1nc2cc(Nc3cc(C4CCCNC4)nc4c(-c5cnn(C)c5)cnn34)ccc2s1 (configuration not stated)	610	> 50000	
Nc1cc(C2CCCNC2)nc2ccnn12 (configuration not stated)	36000	7800	
Cn1cc(-c2cnn3c(Nc4nccs4)cc(C4CCCNC4)nc23)cn1 (configuration not stated)	28	> 50000	
Cn1cc(-c2cnn3c(NCc4cccnc4)cc(C4CCCNC4)nc23)cn1 (configuration not stated)	410	> 50000	
Cn1cc(-c2cnn3c(Nc4ccccn4)cc(C4CCCNC4)nc23)cn1 (configuration not stated)	28	> 50000	
Cc1cc(Nc2cc(C3CCCNC3)nc3c(-c4cnn(C)c4)cnn23)sn1 (configuration not stated)		40000	

Compound	IC50 [1] [nM]	IC50 [2] [nM]	Ratio IC50 [3]
Nc1cc(C2CCCNC2)nc2c(-c3cnccn3)cnn12 (configuration not stated)	290	1200	
Cn1cc(-c2cnn3c(Nc4ccc5c(c4)OCO5)cc(C4CCCNC4)nc23)cn1 (configuration not stated)	390	> 50000	
N#Cc1cnn2c(N)cc(C3CCCNC3)nc12 (configuration not stated)	2100	810	
Nc1cc(-c2ccccc2)nc2c(Br)cnn12	2900	250	
Nc1cc(C2CCCNC2)nc2c(-c3ccns3)cnn12 (configuration not stated)	70	790	
CCOC(=O)c1ccc(Nc2cc(C3CCCNC3)nc3c(-c4cnn(C)c4)cnn23)cc1 (configuration not stated)	51	> 50000	
Cn1cc(-c2cnn3c(NC4CCCCC4)cc(C4CCCNC4)nc23)cn1 (configuration not stated)	1500	> 50000	
Cn1cc(-c2cnn3c(NCc4ccccc4)cc(C4CCCNC4)nc23)cn1 (configuration not stated)	1000		
Nc1cc(C2CCCNC2)nc2c(-c3ccsc3)cnn12 (configuration not stated)	1100	590	
Cc1cc(Nc2cc(C3CCCNC3)nc3c(-c4cnn(C)c4)cnn23)no1 (configuration not stated)	21	> 50000	
CCn1nccc1Nc1cc(C2CCCNC2)nc2c(-c3cnn(C)c3)cnn12 (configuration not stated)	34000		
CCNc1cc(C2CCCNC2)nc2c(-c3cnn(C)c3)cnn12 (configuration not stated)	480	> 50000	
CCOC(=O)c1cnn2c(N)cc(C3CCCNC3)nc12 (configuration not stated)	> 50000		
CC#Cc1cnn2c(N)cc(C3CCCNC3)nc12 (configuration not stated)	18000	80	
[O-][n+]1cccc(CNc2cc(-c3ccccc3F)nc3c(Br)cnn23)c1	> 50000	13	
Cn1cc(-c2cnn3c(Nc4nncs4)cc(C4CCCNC4)nc23)cn1 (configuration not stated)	2200	> 50000	
Cn1cc(-c2cnn3c(NCCO)cc(C4CCCNC4)nc23)cn1 (configuration not stated)	860	> 50000	
Nc1cc(C2CCCNC2)nc2c(-c3cccnc3)cnn12 (configuration not stated)	540		
Nc1cc(C2CCCNC2)nc2c(-c3ccccc3)cnn12 (configuration not stated)	4500	4600	
